Experimental data from US12233060B2, “Inhibitors of Ataxia-Telangiectasia Mutated and Rad3-related protein kinase (ATR) for use in methods of treating cancer” (THE INSTITUTE OF CANCER RESEARCH: ROYAL CANCER HOSPITAL, priority 2016, dated 2025).

How the values were obtained:
[1] = test system: HCT116 ARID1A+/+ and ARID1A−/− cells; assay: γH2AX western blot; type: cell-based, human; conditions: VX-970 0.5 uM; ARID1A−/− vs ARID1A+/+
Method: FIG. 5. ATRi effect on cell cycle progression, chromosomal instability, DNA damage and apoptosis. A. Barchart illustrating G2/M fraction in HCT116 ARID1A^+/+ and ARID1A^−/− cells synchronized in G1/early S phase by double thymidine block and released into fresh media containing DMSO or VX-970 (500 nM). The percentage of cells in G2/M was measured by FACS following PI staining. […] Cells were stained with DAPI. A minimum of 50 anaphases were scored in 3 biological replicate experiments. *p=0.023, Student's t-test. C. Bar chart illustrating frequency of anaphase bridges in TOV21G cells exposed to VX-970 (0.5 uM) or DMSO for 8 hours prior to fixation. Experiment performed as for (B). p=0.006 Student's t-test. D. Mitotic spread images from HCT116 ARID1A^+/+ and ARID1A^−/− cells following exposure to either DMSO or VX-970 (1 uM). Scale bar represents 20 um. E. Bar chart illustrating extent of chromosomal abnormalities in HCT116 ARID1A^+/+ and ARID1A^−/− cells exposed to VX-970 (1 uM). *p<0.05, Student's t-test. F. Western blot illustrating γH2AX in HCT116 ARID1A^+/+ and ARID1A^−/− cells exposed to VX-970 (0.5 uM) for the indicated time prior to cell lyses. G. Bar chart illustrating apoptotic fraction in cells exposed to increasing concentrations of VX-970 for 24 hours. Experiment as per FIG. 3I. H. Western blot illustrating PARP cleavage in HCT116 ARID1A^+/+ and ARID1A^−/− cells exposed to VX-970. […]

SYO1 cells = assay: FACS cell cycle and Caspase Glo apoptosis in SYO1 cells; type: cell-based, human
Method: FIG. 10. ATR inhibitors elicit replication fork stress in SS tumour cells. […] Error bars represent SEM from triplicate experiments. p values were derived from Student's t tests. B. Western blot illustrating PARP1 cleavage in SYO1 cells exposed to VX970 for 24 hours. C. Western blot illustrating H2AX phosphorylation (γH2AX) in SYO1 cells exposed to VX970 (0.1 μM). D. Confocal microspcopy images illustrating H2AX phosphorylation in SYO1 cells exposed to VX970 (0.1 μM, 24 hours). E. Bar chart depicting data from (D). Error bars represent SEM from 100 images. p values were derived from Student's t tests. F. Replication fork speeds in SYO1 cells exposed to 0.1 μM VX970 for two hours. p value was derived from a Student's t test. G. Replication fork speeds in HCT116 cells exposed to 0.1 μM VX970 for two hours in the presence and absence of ectopic expression of a SS18-SSX1 fusion protein. p values were derived from Student's t tests. Expression of SS18-SSX1 or exposure to VX970 reduced fork speed. Combined SS18-SSX1 expression and VX970 exposure enhanced the reduction in fork speed. H and I. FACS plots from SYO1 cells exposed to VX970.

## CNCc1ccc(-c2cc(-c3nc(-c4ccc(S(=O)(=O)C(C)C)cc4)cnc3N)on2)cc1 [VX-970, 5-[4-(Isopropylsulfonyl)phenyl]-3-(3-{4-[(methylamino)methyl]phenyl}-1,2-oxazol-5-yl)-2-pyrazinamine]
[1]
  γH2AX induction: more pronounced
SYO1 cells; 0.1 μM
  sub G1 fraction: increase in the sub G1 fraction
SYO1 cells; SS tumour cells exposed to VX970 (0.1 μM)
  cell cycle, S phase: arrest in S phase
SYO1 cells; SYO1 cells
  apoptosis (Caspase Glo): apoptosis, estimated by Caspase Glo, caused by exposure
